# Tests used:
# [1] = tested on: low-density lipoproteins (LDL); experiment: In vitro oxidation of LDL induced by AAPH (joint dienes, absorbance at 234 nm); assay type: biochemical; conditions: increasing concentrations of CLM, 37° C.
# Source text: (§1) Oxidation of the polyunsaturated fatty acids of LDL is accompanied by the formation of joint dienes, which have a maximum absorbance at 234 nm. These joint dienes result from rearrangement of the double bonds of polyunsaturated fatty acids following removal of a […] hydrogen. The increase in the absorption of joint dienes can be measured directly in solution without resorting to extraction of the lipids. A latency phase during which few dienes are produced, a propagation phase during which the absorbance at 234 nm increases rapidly to reach a plateau and a decomposition phase where the aldehydes formed also absorb in the region of 210-240 nm, thus producing a new increase in the absorbance at 234 nm, are observed in succession. Measurement of the conjugated dienes currently seems to be the best indicator of the oxidizability of LDL if pure LDL preparations are available (Esterbauer et al. (1989)). […]
# (§2) To measure the joint dienes, a solution of LDL (final concentration of 50 μg protein/ml PBS buffer, pH 7.4) is incubated in the presence of 5 μM copper or […] and in the absence or in the presence of varying concentrations of CLM in a quartz cell with an optical path of 1 cm. The absorbances at 234 nm of various samples are measured as a function of time on a UV-visible spectrophotometer (DU-8, Beckman). […]
# [2] = tested on: human intestinal cells (CACO2); experiment: Toxicity on human intestinal cells (CACO2); assay type: cell-based
# Experimental: (§3) Coetenteramine was applied to primary cultures of rat hepatocytes cultured in microplates (20,000 cells per well, 200 μl ). The doses of CLM ranged from 1.3×10^−5 to 5×10^−4 M. After a period of 24 hours, their survival was evaluated by measuring the contents of total proteins in each well (Bradford method). […] Similar results were obtained on human fibroblasts (MRC-5) and human intestinal cells (CACO2).
# [3] = tested on: rat hepatocytes; experiment: Toxicity on primary cultures of rat hepatocytes (24 h, total proteins, Bradford method); assay type: cell-based; conditions: 1.3×10^−5 to 5×10^−4 M CLM
# Experimental: as §3
# [4] = tested on: human fibroblasts (MRC-5); experiment: Toxicity on human fibroblasts (MRC-5); assay type: cell-based
# Experimental: as §3
# [5] = tested on: fibroblasts; experiment: Resistance of fibroblasts subjected to t-BHP (MTT cytotoxicity curve); assay type: cell-based; conditions: 10^−5 M CLM, MTT test
# Source text: FIG. 5 illustrates the increase in the resistance of fibroblasts subjected to the action of t-BHP by means of 10^−5 M CLM.
# [6] = Stability towards oxygen (powder and in aqueous and organic solvents; HPLC and TLC analysis); assay type: physicochemical
# Source text: In fact, this molecule is not changed by remaining in an aqueous solvent exposed to air for several days.
# [7] = tested on: human low-density lipoproteins; experiment: In vitro oxidation of LDL by copper (joint dienes at 234 nm; TBARS); assay type: biochemical
# Source text: as §1, §2
# [8] = tested on: rat hepatocytes; experiment: Protection of hepatocytes treated with t-BHP (LDH release, mortality); assay type: cell-based
# Experimental: (§4) Primary cultures of hepatocytes were subjected to the action of tert-butyl hydroperoxide (t-BHP) and nitrofurantoin (NF). The action of t-BHF is associated with its direct oxidizing power, while the action of NF results from the production of superoxide anions during its metabolization by the cytochrome P450 of cells.
# The mortality, which is 75% in the controls, reaches only a few % in the presence of 50 μM CLM.
# [9] = tested on: hepatocytes; experiment: Protection of hepatocytes subjected to nitrofurantoin (MTT survival); assay type: cell-based, rat; conditions: 3×10^−4 M NF for 6 hours, 5×10^−5 M CLM, MTT method, % of the controls
# Experimental: as §4
# FIG. 4 illustrates the survival of hepatocytes subjected to the action of 3×10^−4 M NF for 6 hours. At the end of this treatment, the survival (estimated by the MTT method) was 18% in the control groups. If CLM is added to the culture medium, the survival of the hepatocytes increases regularly, to reach 70% of the controls at 5×10^−5 M CLM.
smiles,measurement,setting,value
Nc1ncc(-c2ccc(O)cc2)nc1Cc1ccccc1 [Coelenteramine],appearance of joint dienes in the oxidation of LDL by AAPH,[1],significant slowing down in the appearance of joint dienes
same,toxicity,[2],absence of toxicity
same,toxicity (percentage survival of controls),[3],not at all toxic
same,toxicity,[4],absence of toxicity
same,cytotoxicity curve of t-BHP,[5],significant displacement of the cytotoxicity curve
same,degradation product identified by HPLC and TLC,[6]; aqueous solvent exposed to air for several days,no degradation product
same,stability towards oxygen,[6]; powder and after solubilization in aqueous and organic solvents,excellent stability towards oxygen
same,protective action on LDL with respect to oxidation by copper,"[7]; 5 μM copper, 30° C.",significant protective action
same,appearance of TBARS (MDA) in the oxidation of LDL,"[7]; human LDL oxidized by Cu2+, as a function of time",delay in the appearance of TBARS
same,mortality,[8]; 50 μM CLM,only a few %
same,release of lactate dehydrogenase (LDH),[8]; CLM 10 and 50 μM,reduction in the release of lactate dehydrogenase
same,survival of hepatocytes,[9],70%
